Data: patent publication US10457662B2, “Substituted amides for treating and preventing cancer” (The Regents of the University of Michigan, priority 2015, dated 2019)
Where two headings read alike, the source gives them in different places.

Assays:
BxPC-3 = test: MTT assay, BxPC-3; assay type: cell-based; details: Homo sapiens
Method: (§1) Experiments conducted during the course of developing embodiments for the present invention involved performance of a phenotypic screen of a library of 20,000 small-molecules representing five million compounds. […] Subsequently, a lead optimization campaign was performed to synthesize a series of close analogs. Initially, the 50 analogs were tested in three pancreatic cancer cell lines using MTT assay (Table 1).
(§2) For in vitro studies, compounds were dissolved in DMSO at 10 mM as stock solutions and stored at −20° C. For in vivo studies, QN523 was dissolved in a vehicle containing 5% DMSO, 35% propylene glycol and 60% saline, and administered at 100 uL through intraperitoneal injections.

MiaPaCa-2 = test: MTT assay, MiaPaCa-2; details: Homo sapiens
Method: Cells were treated with QN523 for 1, 4, 8, 24, 48, 72 h and left in culture in fresh media. MTT assay was performed 72 h after initiation of treatment. Data points represent Mean±SD from three independent experiments.
as §1, §2

Panc-1 = test: MTT assay, Panc-1; assay type: cell-based; details: Homo sapiens
Method: as §1, §2

[1] = test system: three pancreatic cancer cell lines; test: MTT assay, three pancreatic cancer cell lines; assay type: cell-based; details: read-out: Mark: IC50 lower than 1 μM in at least one cell line, Table 1
[2] = BXPC-3, MTT assay, Mean ± SD, three independent experiments, read-out: IC50 Values BxPC-3
[3] = MIA PaCa-2, read-out: IC50 Values MiaPaCa-2
[4] = PANC-1, MTT assay, Mean ± SD, three independent experiments, read-out: IC50 Values Panc-1
[5] = BXPC-3, read-out: IC50 Values BxPC-3
[6] = MIA PaCa-2, read-out: IC50 Values MiaPaCa-2, MTT assay, Mean ± SD, three independent experiments
[7] = PANC-1, read-out: IC50 Values Panc-1

SMILES	IC50 (BxPC-3; [2])	IC50 (MiaPaCa-2; [3])	IC50 (Panc-1; [4])	IC50 [1]	IC50 (BxPC-3; [5])	IC50 (MiaPaCa-2; [6])	IC50 (Panc-1; [7])	IC50 (MiaPaCa-2; MIA PaCa-2, read-out: IC50 in MiaPaCa-2, comparison compounds)
Nc1ccn([C@@H]2O[C@H](CO)[C@@H](O)C2(F)F)c(=O)n1 [Gemcitabine, reference compound]	0.05 ± 0.02 µM	0.11 ± 0.07 µM	0.2 ± 0.1 µM					
COc1cc(NC(=O)c2cnccn2)c2ncccc2c1 [QN107]	5.53 ± 1.18 µM	0.28 ± 0.04 µM	0.77 ± 0.21 µM	< 1 µM				
COc1cc(NC(=O)c2ncccn2)c2ncccc2c1 [QN113]	> 10 µM	1.3 ± 0.35 µM	9 ± 1.41 µM					
O=C(Nc1cc(OCCN2CCOCC2)cc2cccnc12)c1cnccn1 [QN137, Pyrazine-2-carboxylic acid [6-(2-morpholin-4-yl-ethoxy)-quinolin-8-yl]-amide]	5.17 ± 1.61 µM	1.7 ± 0.52 µM	8.17 ± 1.61 µM					
Cc1cnc(C(=O)Nc2cc(OCCN3CCOCC3)cc3cccnc23)cn1 [QN138, 5-Methyl-pyrazine-2-carboxylic acid [6-(2-morpholin-4-yl-ethoxy)-quinolin-8-yl]-amide]	2 ± 0.87 µM	0.73 ± 0.15 µM	3.5 ± 0.5 µM	< 1 µM				
O=C(Nc1cc(OCCF)cc2cccnc12)c1cnccn1 [QN144, Pyrazine-2-carboxylic acid [6-(2-fluoro-ethoxy)-quinolin-8-yl]amide]	4.33 ± 0.76 µM	0.37 ± 0.15 µM	0.53 ± 0.21 µM	< 1 µM				
CN(C)CCOc1cc(NC(=O)c2cnccn2)c2ncccc2c1 [QN147, Pyrazine-2-carboxylic acid [6-(2-dimethylamino-ethoxy)-quinolin-8-yl]-amide]	> 10 µM	> 10 µM	> 10 µM					
Cc1cnc(C(=O)Nc2cc(OCCN(C)C)cc3cccnc23)cn1 [QN148, 5-Methyl-pyrazine-2-carboxylic acid [6-(2-dimethylamino-ethoxy)-quinolin-8-yl]-amide]	9.67 ± 0.58 µM	1.8 ± 0.46 µM	4.5 ± 0.5 µM					
CC(C)(C)OC(=O)NCCOc1cc(NC(=O)c2ncccn2)c2ncccc2c1 [QN153, (2-{8-[(Pyrimidine-2-carbonyl)amino]quinolin-6-yloxy}ethyl)carbamic acid tert-butyl ester]	> 10 µM	> 10 µM	> 10 µM					
NCCOc1cc(NC(=O)c2cnccn2)c2ncccc2c1 [QN154, Pyrazine-2-carboxylic acid [6-(2-aminoethoxy)quinolin-8-yl]amide]	> 10 µM	> 10 µM	> 10 µM					
Cc1cnc(C(=O)Nc2cc(OCCN)cc3cccnc23)cn1 [QN156, 5-Methylpyrazine-2-carboxylic acid [6-(2-aminoethoxy)quinolin-8-yl]amide]	> 10 µM	> 10 µM	> 10 µM					
CC(C)(C)OC(=O)N1CCC(CCOc2cc(NC(=O)c3cnccn3)c3ncccc3c2)CC1 [QN159, 4-(2-{8-[(Pyrazine-2-carbonyl)amino]quinolin-6-yloxy}ethyl)piperidine-1-carboxylic acid tert-butyl ester]	3.33 ± 0.58 µM	3.67 ± 1.15 µM	9.5 ± 0.5 µM					
Cc1cnc(C(=O)Nc2cc(OCCC3CCN(C(=O)OC(C)(C)C)CC3)cc3cccnc23)cn1 [QN160]	9.33 ± 1.15 µM	9 ± 1.73 µM	9.67 ± 0.58 µM					
CC(C)(C)OC(=O)N1CCC(CCOc2cc(NC(=O)c3ncccn3)c3ncccc3c2)CC1 [QN161, 4-(2-{8-[(Pyrimidine-2-carbonyl)amino]quinolin-6-yloxy}ethyl)piperidine-1-carboxylic acid tert-butyl ester]	> 10 µM	> 10 µM	> 10 µM					
NCCOc1cc(NC(=O)c2ncccn2)c2ncccc2c1 [QN162, Pyrimidine-2-carboxylic acid [6-(2-aminoethoxy)quinolin-8-yl]amide]	> 10 µM	> 10 µM	> 10 µM					
O=C(Nc1cc(OCCC2CCNCC2)cc2cccnc12)c1cnccn1 [QN163, Pyrazine-2-carboxylic acid [6-(2-piperidin-4-yl-ethoxy)quinolin-8-yl]amide]	> 10 µM	> 10 µM	> 10 µM					
Cc1cnc(C(=O)Nc2cc(OCCC3CCNCC3)cc3cccnc23)cn1 [QN164, 5-Methylpyrazine-2-carboxylic acid [6-(2-piperidin-4-yl-ethoxy)quinolin-8-yl]amide]	8.33 ± 1.53 µM	6.17 ± 1.04 µM	> 10 µM					
O=C(Nc1cc(OCCC2CCNCC2)cc2cccnc12)c1ncccn1 [QN165, Pyrimidine-2-carboxylic acid [6-(2-piperidin-4-yl-ethoxy)quinolin-8-yl]amide]	> 10 µM	> 10 µM	> 10 µM					
Cc1ccc(C(=O)Nc2cccc3cccnc23)cn1 [QN522, 6-Methyl-N-quinolin-8-yl-nicotinamide]					> 10 µM	> 10 µM	> 10 µM	
O=C(Nc1cccc2cccnc12)c1ccc(Br)nc1 [QN524, 6-Bromo-N-quinolin-8-yl-nicotinamide]					> 10 µM	> 10 µM	> 10 µM	
O=C(Nc1cccc2cccnc12)c1ccc(Br)cn1 [QN529, 5-Bromopyridine-2-carboxylic acid quinolin-8-ylamide]					> 10 µM	1.83 ± 0.72 µM	4 ± 0.8 µM	
O=C(Nc1cccc2cccnc12)c1cccc(Br)n1 [QN530, 6-Bromopyridine-2-carboxylic acid quinolin-8-ylamide]					> 10 µM	> 10 µM	> 10 µM	
O=C(Nc1cccc2cccnc12)c1ccc(F)nc1 [QN532, 6-Fluoro-N-quinolin-8-yl-nicotinamide]					> 10 µM	> 10 µM	> 10 µM	
O=C(Nc1cccc2cccnc12)c1cccnn1 [QN566, Pyridazine-3-carboxylic acid quinolin-8-ylamide]					> 10 µM	8.5 ± 1.03 µM	> 10 µM	
O=C(Nc1cccc2cccnc12)c1cnc2ccccc2n1 [QN572, Quinoxaline-2-carboxylic acid quinolin-8-ylamide]					> 10 µM	> 10 µM	> 10 µM	
O=C(Nc1cccc2cccnc12)c1cnc(Cl)cn1 [QN573, 5-Chloropyrazine-2-carboxylic acid quinolin-8-ylamide]					> 10 µM	7 ± 1.3 µM	9.3 ± 0.8 µM	
CC(COc1ccccc1)N(CCCl)Cc1ccccc1 (stereo not shown) [pheoxybenzamine, reference compound]								> 30 µM

Now from value to molecule, other results behind:

IC50 (BxPC-3; [2])	IC50 (MiaPaCa-2; [3])	IC50 (Panc-1; [4])	IC50 [1]	SMILES	IC50 (BxPC-3; [5])	IC50 (MiaPaCa-2; [6])	IC50 (Panc-1; [7])	IC50 (MiaPaCa-2; MIA PaCa-2, read-out: IC50 in MiaPaCa-2, comparison compounds)
> 10 µM	> 10 µM	> 10 µM		Cc1cnc(C(=O)Nc2ccc3ncccc3c2)cn1 [QN520, 5-Methylpyrazine-2-carboxylic acid quinolin-6-ylamide]				
> 10 µM	> 10 µM	> 10 µM		Cc1cnc(C(=O)Nc2cccc3ncccc23)cn1 [QN521, 5-Methylpyrazine-2-carboxylic acid quinolin-5-ylamide]				
> 10 µM	2.23 ± 0.31 µM	6.83 ± 1.73 µM		Cc1cnc(C(=O)Nc2ccc(Br)c3cccnc23)cn1 [QN571, 5-Methylpyrazine-2-carboxylic acid (5-bromoquinolin-8-yl)amide]				
> 10 µM	> 10 µM	> 10 µM		N#C/C(=C\c1cccc(Br)n1)C(=O)Nc1cccc2cccnc12 [QN608]				
> 10 µM	> 10 µM	> 10 µM		N#C/C(=C\c1ccc(O)c(O)c1)C(=O)Nc1cccc2cccnc12 [QN609]				
> 10 µM	> 10 µM	> 10 µM		COc1cc(/C=C(\C#N)C(=O)Nc2cccc3cccnc23)cc(OC)c1OC [QN610]				
> 10 µM	> 10 µM	> 10 µM		Cc1cnc(C(=O)Nc2cccc3ccc(C)nc23)cn1 [QN632, 5-Methylpyrazine-2-carboxylic acid (2-methylquinolin-8-yl)amide]				
> 10 µM	> 10 µM	> 10 µM		Cc1ccc2cccc(NC(=O)c3cnccn3)c2n1 [QN634, Pyrazine-2-carboxylic acid (2-methylquinolin-8-yl)amide]				
7.22 ± 1.02 µM	7.7 ± 1.53 µM	6.72 ± 1.02 µM		O=C(Nc1nccc2cccnc12)c1cnccn1 [QN655, Pyrazine-2-carboxylic acid [1,7]naphthyridin-8-ylamide]				
> 10 µM	> 10 µM	> 10 µM		CN(C)Cc1ccc2cccc(NC(=O)c3cnccn3)c2n1 [QN659, Pyrazine-2-carboxylic acid (2-dimethylaminomethyl-quinolin-8-yl)amide]				
> 10 µM	> 10 µM	> 10 µM		Cc1ccc2cccc(NC(=O)c3ncccn3)c2n1 [QN660, Pyrimidine-2-carboxylic acid (2-methylquinolin-8-yl)amide]				
> 10 µM	2.83 ± 0.76 µM	2.7 ± 0.52 µM		O=C(Nc1cc(Cl)cc2cccnc12)c1cnccn1 [QN792, N-(6-Chloroquinolin-8-yl)pyrazine-2-carboxamide]				
5.2 ± 0.3 µM	1.5 ± 0.5 µM	1.77 ± 0.25 µM		Cc1cnc(C(=O)Nc2cc(Cl)cc3cccnc23)cn1 [QN793, N-(6-Chloroquinolin-8-yl)-5-methylpyrazine-2-carboxamide]				
